The source of these data is ChEMBL document CHEMBL3352036, “Identification of 4'-O-β-D-glucosyl-5-O-methylvisamminol as a novel epigenetic suppressor of histone H3 phosphorylation at Ser10 and its interaction with 14-3-3ε” (Bioorg Med Chem Lett, 2014).

The test system of data set [1] is HT-29. The data set can be described thus: Inhibition of c-Jun protein expression in human HT-29 cells at 10 uM incubated for 1 hr by Western blotting method. It counts as functional, cell-based.
The target in data set [2] is T1, 14-3-3 protein epsilon (Homo sapiens) (UniProt P62258).
T1 sequence (whole entry): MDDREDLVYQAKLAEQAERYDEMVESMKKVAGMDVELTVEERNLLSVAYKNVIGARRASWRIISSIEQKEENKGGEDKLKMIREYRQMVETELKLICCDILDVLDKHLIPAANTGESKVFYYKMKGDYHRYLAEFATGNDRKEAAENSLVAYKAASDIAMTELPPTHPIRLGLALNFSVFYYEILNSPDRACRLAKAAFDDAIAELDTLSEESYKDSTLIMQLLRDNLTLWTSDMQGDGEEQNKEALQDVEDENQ
The data set can be described thus: Inhibition of recombinant 14-3-3epsilon protein (unknown origin) expression in Escherichia coli assessed as reduction in 14-3-3epsilon and histone H3 Ser10 interaction using human HT-29 cells lysates at 1 uM incubated for 1 hr by Western blotting based GST-pull down assay.

Data set [3] relates to HT-29. The data set can be described thus: Inhibition of histone H3 Ser10 phosphorylation in human HT-29 cells at 10 uM incubated for 1 hr by Western blotting method. In kind it is functional, cell-based.
Data set [4] relates to HT-29. In words: Inhibition of 14-3-3epsilon protein expression in human HT-29 cells at 10 uM incubated for 1 to 4 hrs by Western blotting method. In kind it is functional, cell-based.
Data set [5] concerns the target Aurora kinase B (Homo sapiens) (UniProt Q96GD4). The data set can be described thus: Inhibition of Aurora B kinase phosphorylation in human HT-29 cells at 10 uM incubated for 15 to 120 mins by Western blotting method. In kind it is cell-based.
Data set [6] has as its system HT-29. The data set can be described thus: Induction of cell cycle arrest in human HT-29 cells assessed as accumulation at subG1 phase at 10 uM incubated for 24 hrs by propidium iodide staining based FACS assay (reference value: 0.79%). It counts as functional.
Data set [7] concerns HT-29. The data set can be described thus: Induction of Nrf2 protein protein expression in human HT-29 cells at 10 uM incubated for 6 to 24 hrs by Western blotting method. It counts as functional, cell-based.
Data set [8] has as its system HT-29. In words: Induction of cell cycle arrest in human HT-29 cells assessed as accumulation at S phase at 10 uM incubated for 24 hrs by propidium iodide staining based FACS assay (reference value: 21.94%). It counts as functional.
Data set [9] has as its target Mitogen-activated protein kinase 9 (Homo sapiens) (UniProt P45984). In words: Inhibition of JNK2 phosphorylation in human HT-29 cells at 10 uM incubated for 15 to 120 mins by Western blotting method. It counts as cell-based.
In data set [10] the test system is HT-29. In words: Induction of cell cycle arrest in human HT-29 cells assessed as accumulation at G0/G1 phase at 10 uM incubated for 24 hrs by propidium iodide staining based FACS assay (reference value: 60.39%). In kind it is functional.
In data set [11] the test system is HT-29. The data set can be described thus: Induction of cell cycle arrest in human HT-29 cells assessed as accumulation at G2/M phase at 10 uM incubated for 24 hrs by propidium iodide staining based FACS assay (reference value: 14.8%). In kind it is functional.
Data set [12] concerns HT-29. In words: Induction of HO-1 protein protein expression in human HT-29 cells at 10 uM incubated for 6 to 24 hrs by Western blotting method. In kind it is functional, cell-based.
For data set [13], the system named is HT-29. In words: Induction of cell cycle arrest in human HT-29 cells assessed as accumulation at G0/G1 phase at 10 uM incubated for 6 hrs by propidium iodide staining based FACS assay (reference value: 60.39%). In kind it is functional.
For data set [14], the system named is HT-29. In words: Induction of cell cycle arrest in human HT-29 cells assessed as accumulation at S phase at 10 uM incubated for 6 hrs by propidium iodide staining based FACS assay (reference value: 21.94%). In kind it is functional.
Data set [15] has as its target MAP kinase p38 (Homo sapiens) (UniProt O15264+Q15759+Q16539+P53778). The data set can be described thus: Inhibition of p38 phosphorylation in human HT-29 cells at 10 uM incubated for 15 to 120 mins by Western blotting method. It counts as cell-based.
Data set [16] addresses T2, Aurora kinase C (Homo sapiens) (UniProt Q9UQB9).
T2 sequence (whole entry): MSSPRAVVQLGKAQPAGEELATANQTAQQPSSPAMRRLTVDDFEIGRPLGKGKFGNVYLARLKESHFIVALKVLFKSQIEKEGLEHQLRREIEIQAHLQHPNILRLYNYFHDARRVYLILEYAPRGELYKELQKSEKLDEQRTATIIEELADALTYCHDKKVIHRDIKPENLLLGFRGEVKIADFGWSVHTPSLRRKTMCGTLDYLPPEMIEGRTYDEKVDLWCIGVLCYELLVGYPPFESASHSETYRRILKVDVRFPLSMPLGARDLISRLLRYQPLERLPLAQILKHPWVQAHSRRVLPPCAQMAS
In words: Inhibition of Aurora C kinase phosphorylation in human HT-29 cells at 10 uM incubated for 15 to 120 mins by Western blotting method. It counts as cell-based.

Data set [17] addresses Mitogen-activated protein kinase 8 (Homo sapiens) (UniProt P45983). The data set can be described thus: Inhibition of JNK1 phosphorylation in human HT-29 cells at 10 uM incubated for 15 to 120 mins by Western blotting method. In kind it is cell-based.
The target of data set [18] is T3, Aurora kinase A (Homo sapiens) (UniProt O14965).
T3 sequence (whole entry): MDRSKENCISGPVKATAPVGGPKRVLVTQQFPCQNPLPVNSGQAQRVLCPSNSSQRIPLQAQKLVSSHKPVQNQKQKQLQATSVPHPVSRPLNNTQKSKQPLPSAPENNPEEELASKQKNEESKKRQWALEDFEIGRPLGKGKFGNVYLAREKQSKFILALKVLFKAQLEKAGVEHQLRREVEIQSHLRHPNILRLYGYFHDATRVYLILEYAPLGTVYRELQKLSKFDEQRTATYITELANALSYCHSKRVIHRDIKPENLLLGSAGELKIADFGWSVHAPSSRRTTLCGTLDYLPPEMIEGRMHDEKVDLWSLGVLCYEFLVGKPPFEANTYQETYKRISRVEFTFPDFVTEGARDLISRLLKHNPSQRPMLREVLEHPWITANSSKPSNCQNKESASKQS
In words: Inhibition of Aurora A kinase phosphorylation in human HT-29 cells at 10 uM incubated for 15 to 120 mins by Western blotting method. In kind it is cell-based.

Data set [19] deals with HT-29. In words: Toxicity against human HT-29 cells assessed as effect on cell viability at 10 uM incubated for 24 hrs by MTT assay. In kind it is cell-based. The following applies: ht-29, 24 h.
Data set [20] relates to HT-29. The data set can be described thus: Induction of cell cycle arrest in human HT-29 cells assessed as accumulation at subG1 phase at 10 uM incubated for 6 hrs by propidium iodide staining based FACS assay (reference value: 0.79%). In kind it is functional.
In data set [21] the test system is HT-29. In words: Induction of cell cycle arrest in human HT-29 cells assessed as accumulation at G2/M phase at 10 uM incubated for 6 hrs by propidium iodide staining based FACS assay (reference value: 14.8%). In kind it is functional.

Activity calls are given as the source filed them. No cut-off for these calls is given here.

Mitogen-activated protein kinase 9 (Homo sapiens), sequence (P45984 whole entry, looked up): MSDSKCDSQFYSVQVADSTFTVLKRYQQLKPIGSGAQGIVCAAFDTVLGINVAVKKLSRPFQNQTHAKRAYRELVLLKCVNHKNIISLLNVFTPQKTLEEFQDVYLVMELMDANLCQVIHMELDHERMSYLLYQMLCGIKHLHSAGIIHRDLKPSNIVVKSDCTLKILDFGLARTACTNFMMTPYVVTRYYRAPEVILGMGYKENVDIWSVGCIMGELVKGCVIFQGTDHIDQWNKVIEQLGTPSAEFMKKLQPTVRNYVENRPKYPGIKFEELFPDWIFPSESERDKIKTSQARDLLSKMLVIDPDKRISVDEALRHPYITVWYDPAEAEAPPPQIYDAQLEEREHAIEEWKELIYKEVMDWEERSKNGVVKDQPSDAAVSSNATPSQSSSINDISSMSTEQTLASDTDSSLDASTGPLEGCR
Aurora kinase B (Homo sapiens), sequence (Q96GD4 whole entry): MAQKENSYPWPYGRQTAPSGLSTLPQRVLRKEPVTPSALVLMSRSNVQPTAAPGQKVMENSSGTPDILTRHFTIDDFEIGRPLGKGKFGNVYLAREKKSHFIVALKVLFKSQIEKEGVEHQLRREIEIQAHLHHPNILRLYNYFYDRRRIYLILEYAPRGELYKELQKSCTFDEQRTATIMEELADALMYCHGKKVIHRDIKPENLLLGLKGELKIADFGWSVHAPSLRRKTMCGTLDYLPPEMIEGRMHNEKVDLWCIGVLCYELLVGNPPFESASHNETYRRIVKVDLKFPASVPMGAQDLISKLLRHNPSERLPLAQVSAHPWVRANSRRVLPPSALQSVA
Mitogen-activated protein kinase 8 (Homo sapiens), sequence (P45983 whole entry): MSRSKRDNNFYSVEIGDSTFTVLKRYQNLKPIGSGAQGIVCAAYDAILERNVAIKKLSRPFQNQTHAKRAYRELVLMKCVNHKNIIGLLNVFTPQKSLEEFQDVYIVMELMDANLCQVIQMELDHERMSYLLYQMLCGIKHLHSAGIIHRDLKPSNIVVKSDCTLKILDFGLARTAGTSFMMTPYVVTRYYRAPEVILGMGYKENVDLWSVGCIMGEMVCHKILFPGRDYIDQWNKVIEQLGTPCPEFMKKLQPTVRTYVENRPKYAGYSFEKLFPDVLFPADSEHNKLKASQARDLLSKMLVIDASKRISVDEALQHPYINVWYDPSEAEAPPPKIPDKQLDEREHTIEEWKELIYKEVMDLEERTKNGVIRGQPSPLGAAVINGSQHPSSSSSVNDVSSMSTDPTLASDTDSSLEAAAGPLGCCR

Turning to `C[C@H]1[C@H](C)CC[C@]2(C)CC[C@]3(C)C(=CC[C@@H]4[C@@]5(C)CC[C@H](O)C(C)(C)[C@@H]5CC[C@]43C)[C@H]12`, the inhibition entry in [1] and in data set [3] was “Active” in each case. The inhibition result in [2] and in [4] was “inactive” each time.

Consider `CC1(C)CC[C@]2(C(=O)O)CC[C@]3(C)C(=CC[C@@H]4[C@@]5(C)CC[C@H](O)C(C)(C)[C@@H]5CC[C@]43C)[C@@H]2C1`, for which the inhibition entry in data set [1] and in data set [3] was “Active” in each case. Also, the inhibition entry in [2] and in data set [4] was “inactive” in each case.

As to `CCCCCCCCCCCCC/C=C1/C(=O)O[C@H](C)[C@@H]1O`, the inhibition entry in [1] and in data set [3] was “Active” throughout. In addition, the inhibition result in [2] and in [4] was “inactive” throughout.

With `COc1c2c(cc3oc(C)cc(=O)c13)OC(C(C)(C)O[C@H]1O[C@@H](CO)[C@H](O)[C@@H](O)[C@@H]1O)C2` (stereo partly drawn), the inhibition entry in data set [5], in data set [9], in data set [1], in [2], in data set [16] and in [17] was “Active” in each case. Besides, the inhibition result in [3] and in [18] was “Active” each time. Further, the Activity in [6] stood at 0.88%; in data set [8] it was 15.97%; in data set [10] it was 59.07%; in data set [11], 22.29%; in [13] it was 58.61%; in data set [14], 16.85%. For the same compound, the Activity entry in data set [19] is “Non-toxic”; in [20] it was 1.06%; in data set [21] it was 21.86%. The result in [7] and in data set [12] was Active. Further, the inhibition entry in data set [15] and in data set [4] was “inactive” each time.
